{"source": "patent US7074961B2", "about": "“Antidepressants and their analogues as long-acting local anesthetics and analgesics” (The Brigham and Women's Hospital, Inc., priority 2000, dated 2006)", "key": {"rat sciatic nerve": {"tested_on": "rat sciatic nerve", "test": "Rat sciatic nerve blockade with neurobehavioral examination (proprioception, motor function, nocifensive reaction)", "type": "in vivo", "conditions": "for Development of sciatic nerve blockade after injection: all rats", "excerpt": "Male Sprague-Dawley rats were purchased from Taconic Farm, Inc., Germantown, N.Y., and kept in animal housing facilities with controlled humidity (20-30% relative humidity), room temperature, and a 12-h (6:00 AM-6:00 PM) light-dark cycle. Rats were handled before behavioral testing to familiarize them with the experiment and to minimize stress-induced analgesia. At the time of injections, animals weighed approximately 250-300 g. The experimenter was blinded to the drug/concentration used.\nFor sciatic nerve blockade, rats were lightly anesthetized by inhalation of sevoflurane and the landmarks (greater trochanter and ischial tuberosity) of the left hind limb were localized. […] The right hind limb was used as a control.\nNeurobehavioral examination consisted of evaluation of motor function, proprioception, and nocifensive reaction immediately before inhalation of sevoflurane, at 2, 4, 6, 8, 10, 15, 20, 25, 30, 45, and 60 minutes after the injection, and then at 30-minute intervals until 750 minutes (12.5 hours). The following is a brief description of the neurobehavioral examination.\nMotor function. Motor function was evaluated by measuring the “extensor postural thrust” of the hind limbs. The rat was held upright with the hind limb extended so that the body's weight was supported by the distal metatarsus and toes. The extensor thrust was measured as the gram force applied to a digital platform balance (Ohaus Lopro, Fisher Scientific, Florham Park, N.J.), the force that resists contact of the platform by the heel. The preinjection control value (range 130-165 gram) was considered 0% of the maximal possible effect (MPE). The reduction in this force, representing reduced extensor muscle contraction due to motor blockade, was calculated as a percentage of the control force. A force less than 20 grams (also referred to as weight of the “flaccid limb”) was considered 100% MPE.\nProprioception. Proprioception evaluation was based on resting posture and postural reactions (“tactile placing” and “hopping”). The functional deficit was graded as 3 (normal) or 0% MPE, 2 (slightly impaired), 1 (severely impaired), and 0 (complete) or 100% MPE. Keeping the rat in a normal resting posture with the toes flexed and the dorsi of the feet placed on the supporting surface, we evaluated tactile placing as the ability to reposition the toes.\nHopping response was evoked by lifting the front half of the animal off the ground and then lifting one hind limb at a time off the ground so that the animal moved laterally. This process normally evokes a prompt hopping with the weight-bearing limb in the direction of movement to avoid falling over. A predominantly motor impairment causes a prompt but weaker than normal response. Conversely with a predominantly proprioceptive blockade, delayed hopping is followed by greater lateral hops to avoid falling over or, in case of full blockade, no hopping at all.\nNocifensive reaction. Nocifensive reaction was evaluated by the withdrawal reflex and/or vocalization to pinch of a skin fold over the lateral metatarsus (cutaneous pain) and of the distal phalanx of the fifth toe (deep pain). Nocifensive reaction was graded 4 (normal or 0% MPE), 3 (25% MPE), 2 (50% MPE), 1 (75% MPE), and 0 (absent or 100% MPE)."}, "Na+ channels": {"tested_on": "Na+ channels", "test": "Whole-cell voltage clamp of Na+ currents in GH3 cells", "type": "cell-based, rat", "conditions": "for Use-dependent (additional) blockade of Na+ currents: 3 μM, high-frequency stimulation at 5 Hz, 60 pulses; for Na+ channels blocked in the inactivated state / Na+ channels blocked in the resting state: 10 μM; for Na+ channels blocked in the inactivated state: conditioning pulse of −60 mV; for Na+ channels blocked in the inactivated state / Na+ channels blocked in the resting state / IC50: GH3 cells; for Na+ channels blocked in the resting state: conditioning pulse of −150 mV; for Time to complete washout: all concentrations and all protocols", "method": "The whole-cell configuration of the patch-clamp technique was used to record macroscopic Na^+ currents at room temperatures ranging from 21 to 23 degrees Celsius. Command voltages were controlled by pCLAMP software (Axons Instruments, Inc., Foster City, Calif.) and delivered by a List-EPC7 patch clamp amplifier (List-Electronic, Darmstadt/Eberstadt, Germany). After the establishment of whole-cell configuration, cells were dialyzed for 30 minutes before data were acquired. Data were filtered at 5 kHz, sampled at 50 kHz, collected, and stored with pCLAMP software. Leak and capacitance currents were subtracted by P/4 protocol, which was not applied in the use-dependent block of Na^+ currents. Pipette electrodes were filled with an internal solution containing (in mM) 100 NaF, 30 NaCl, 10 ethylene glycol-bis(β-aminoethylether)N,N,N′,N′-tetraacetic acid (EGTA), and 10 hydroxyethylpiperazineethane sulfonic acid (HEPES) titrated with CsOH to pH 7.2. The external solution consisted of (in mM) 85 choline Cl, 65 NaCl, 2 CaCl2, and 10 HEPES titrated with tetramethylammoniumhydroxide to pH 7.4. Rat clonal pituitary GH3 cells were purchased from the American Type Culture, Collection (Rockville, Md.). Cells were split twice a week and maintained in Dulbecco's modified Eagle's medium supplemented with penicillin/streptomycin (1%) and heat-inactivated fetal bovine serum (10%). The 35 mm-culture dishes in which the cells were grown were also used as a recording chamber. To determine the voltage-dependent blockade by amitriptyline or bupivacaine, a prepulse or conditioning pulse at various voltages and long enough to permit the drug-channel binding interaction to reach its steady-state level was applied (pulse protocol and representative tracings are shown in FIG. 4A). In order to determine the potency of amitriptyline and bupivacaine for the resting and inactivated states, dose-response curves were subsequently constructed at holding potentials of −150 mV and −60 mV, respectively (FIG. 5). Finally, additional blockade provoked by high-frequency stimulation (use dependent blockade) was investigated (pulse protocol and representative tracings are shown in FIG. 6A)."}, "[1]": {"conditions": "reportedly; cited from earlier work"}, "[2]": {"conditions": "single injection at 5 mM into the rat sciatic notch"}, "[3]": {"conditions": "holding potential −60 mV, read-out: 50% inhibitory concentration (IC50), inactivated state"}, "[4]": {"conditions": "holding potential −150 mV, read-out: 50% inhibitory concentration (IC50), resting state"}}, "note": "Where “and” joins values, the source holds several entries; their conditions need not be identical. Identical values can stand only once. Like-named read-outs stand apart in the source and are kept apart here.", "data": [{"smiles": "C[N+](C)(C)CC/C=C1\\c2ccccc2COc2ccccc21", "note": "[N-methyl doxepin, N-methyl doxepin bromide]", "values": [{"measurement": "Duration for complete blockage of motor", "setting": "rat sciatic nerve; 5 mM, pH 7.4", "result": "5.0 ± 0.5", "unit": "h"}, {"measurement": "Duration for complete blockage of nociception", "setting": "rat sciatic nerve; 5 mM, pH 7.4", "result": "5.3 ± 0.3", "unit": "h"}, {"measurement": "Duration for complete blockage of proprioception", "setting": "rat sciatic nerve; 5 mM, pH 7.4", "result": "5.0 ± 0.5", "unit": "h"}, {"measurement": "Time to reach full recovery of motor", "setting": "rat sciatic nerve; 5 mM, pH 7.4", "result": "10.3 ± 0.2", "unit": "h"}, {"measurement": "Time to reach full recovery of nociception", "setting": "rat sciatic nerve; 5 mM, pH 7.4", "result": "9.9 ± 0.2", "unit": "h"}, {"measurement": "Time to reach full recovery of proprioception", "setting": "rat sciatic nerve; 5 mM, pH 7.4", "result": "9.5 ± 0.3", "unit": "h"}, {"measurement": "Development of sciatic nerve blockade after injection", "setting": "rat sciatic nerve", "result": "complete sciatic nerve blockade"}]}, {"smiles": "C[N+](C)(CCC=C1c2ccccc2CCc2ccccc21)CCc1ccccc1.[Br-]", "note": "[N-phenyl-ethyl amitriptyline, N-phenyl-ethyl amitriptyline bromide]", "values": [{"measurement": "Inhibition of sodium channels in vitro", "setting": "Na+ channels", "result": "strong tonic and use-dependent inhibition"}, {"measurement": "Extension of duration of complete nerve block over parent drug", "setting": "rat sciatic nerve; 5 mM, 5 vs. 70 hrs", "result": "more than 10 fold"}, {"measurement": "Duration of complete sciatic nerve block", "setting": "rat sciatic nerve; [2]", "result": "70 to 80", "unit": "h"}, {"measurement": "Full recovery of function", "setting": "rat sciatic nerve; [2]", "result": "5 to 6", "unit": "days"}]}, {"smiles": "CN(C)CCC=C1c2ccccc2CCc2ccccc21", "note": "[amitriptyline]", "values": [{"measurement": "Use-dependent (additional) blockade of Na+ currents", "setting": "Na+ channels", "result": "~50", "unit": "%"}, {"measurement": "Na+ channels blocked in the inactivated state", "setting": "Na+ channels", "result": "> 95", "unit": "%"}, {"measurement": "Na+ channels blocked in the resting state", "setting": "Na+ channels", "result": "~15", "unit": "%"}, {"measurement": "Time to complete washout", "setting": "Na+ channels", "result": "≤ 5", "unit": "min"}, {"measurement": "IC50", "setting": "Na+ channels; [3]", "result": "0.9 ± 0.1", "unit": "µM"}, {"measurement": "IC50", "setting": "Na+ channels; [4]", "result": "141 ± 4.4", "unit": "µM"}, {"measurement": "Hill coefficient, inactivated state", "setting": "Na+ channels; −60 mV", "result": "1.35±0.15"}, {"measurement": "Potency relative to bupivacaine, inactivated state", "setting": "Na+ channels; −60 mV", "result": "~10", "unit": "×"}, {"measurement": "Hill coefficient, resting state", "setting": "Na+ channels; −150 mV", "result": "1.56±0.03"}, {"measurement": "Potency relative to bupivacaine, resting state", "setting": "Na+ channels; −150 mV", "result": "~15", "unit": "×"}, {"measurement": "Duration of complete blockade, motor", "setting": "rat sciatic nerve; 5 mM", "result": "168.7 ± 7.9", "unit": "min"}, {"measurement": "Duration of complete blockade, nociception", "setting": "rat sciatic nerve; 5 mM", "result": "217.5 ± 19.4", "unit": "min"}, {"measurement": "Time to full recovery of function, motor function", "setting": "rat sciatic nerve; 5 mM", "result": "270 ± 13.9", "unit": "min"}, {"measurement": "Time to full recovery of function, nociception", "setting": "rat sciatic nerve; 5 mM", "result": "352.5 ± 12.4", "unit": "min"}, {"measurement": "Time to full recovery of function, proprioception", "setting": "rat sciatic nerve; 5 mM", "result": "255.0 ± 11.3", "unit": "min"}, {"measurement": "Duration of complete blockade, motor", "setting": "rat sciatic nerve; 10 mM", "result": "402.9 ± 27.7", "unit": "min"}, {"measurement": "Duration of complete blockade, nociception", "setting": "rat sciatic nerve; 10 mM", "result": "454.8 ± 38.4 min and 454.3 ± 38.4 min"}, {"measurement": "Duration of complete blockade, proprioception", "setting": "rat sciatic nerve; 10 mM", "result": "467.1 ± 35.8", "unit": "min"}, {"measurement": "Time to full recovery of function, motor function", "setting": "rat sciatic nerve; 10 mM", "result": "582.6 ± 32.6", "unit": "min"}, {"measurement": "Time to full recovery of function, nociception", "setting": "rat sciatic nerve; 10 mM", "result": "655.7 ± 27.3", "unit": "min"}, {"measurement": "Time to full recovery of function, proprioception", "setting": "rat sciatic nerve; 10 mM", "result": "578.6 ± 39.7", "unit": "min"}, {"measurement": "Onset: time to full nociceptive, motor and proprioceptive blockade", "setting": "rat sciatic nerve; 0.2 ml 5 mM at sciatic nerve", "result": 30, "unit": "min"}, {"measurement": "Onset: time to full nociceptive, motor and proprioceptive blockade", "setting": "rat sciatic nerve; 0.2 ml 10 mM at sciatic nerve", "result": 6, "unit": "min"}, {"measurement": "Development of sciatic nerve blockade after injection", "setting": "rat sciatic nerve", "result": "complete sciatic nerve blockade"}]}, {"smiles": "CCCCN1CCCCC1C(=O)Nc1c(C)cccc1C", "note": "(centres unmarked) [bupivacaine]", "values": [{"measurement": "Use-dependent (additional) blockade of Na+ currents", "setting": "Na+ channels", "result": "~14", "unit": "%"}, {"measurement": "Na+ channels blocked in the inactivated state", "setting": "Na+ channels", "result": "> 70", "unit": "%"}, {"measurement": "Na+ channels blocked in the resting state", "setting": "Na+ channels", "result": "essentially none"}, {"measurement": "Time to complete washout", "setting": "Na+ channels", "result": "≤ 3", "unit": "min"}, {"measurement": "IC50", "setting": "Na+ channels; [3]", "result": "9.5 ± 0.6", "unit": "µM"}, {"measurement": "IC50", "setting": "Na+ channels; [4]", "result": "9.5 ± 0.6", "unit": "µM"}, {"measurement": "Hill coefficient, inactivated state", "setting": "Na+ channels; −60 mV", "result": "1.16±0.08"}, {"measurement": "Hill coefficient, resting state", "setting": "Na+ channels; −150 mV", "result": "1.12±0.04"}, {"measurement": "Duration of major nerve block", "setting": "[1]", "result": "three to twelve"}, {"measurement": "Duration of complete blockade, motor", "setting": "rat sciatic nerve; 15.4 mM", "result": "87.5 ± 14.7", "unit": "min"}, {"measurement": "Duration of complete blockade, nociception", "setting": "rat sciatic nerve; 15.4 mM", "result": "90 ± 13.4", "unit": "min"}, {"measurement": "Duration of complete blockade, proprioception", "setting": "rat sciatic nerve; 15.4 mM", "result": "90 ± 13.4", "unit": "min"}, {"measurement": "Time to full recovery of function, motor function", "setting": "rat sciatic nerve; 15.4 mM", "result": "160.0 ± 6.3", "unit": "min"}, {"measurement": "Time to full recovery of function, proprioception", "setting": "rat sciatic nerve; 15.4 mM", "result": "155.0 ± 9.2", "unit": "min"}, {"measurement": "Onset: time to full nociceptive, motor and proprioceptive blockade", "setting": "rat sciatic nerve; 0.2 ml 15.4 mM at sciatic nerve", "result": 4, "unit": "min"}]}]}
